Molecular target: T1, epithelial sodium channels (Homo sapiens, UniProt P37088+P51168+P51170)
T1 construct: endogenous in cells; host or cells: A549 human lung epithelial cells (ATCC CCL-185)
T1 sequence (P37088 1-669): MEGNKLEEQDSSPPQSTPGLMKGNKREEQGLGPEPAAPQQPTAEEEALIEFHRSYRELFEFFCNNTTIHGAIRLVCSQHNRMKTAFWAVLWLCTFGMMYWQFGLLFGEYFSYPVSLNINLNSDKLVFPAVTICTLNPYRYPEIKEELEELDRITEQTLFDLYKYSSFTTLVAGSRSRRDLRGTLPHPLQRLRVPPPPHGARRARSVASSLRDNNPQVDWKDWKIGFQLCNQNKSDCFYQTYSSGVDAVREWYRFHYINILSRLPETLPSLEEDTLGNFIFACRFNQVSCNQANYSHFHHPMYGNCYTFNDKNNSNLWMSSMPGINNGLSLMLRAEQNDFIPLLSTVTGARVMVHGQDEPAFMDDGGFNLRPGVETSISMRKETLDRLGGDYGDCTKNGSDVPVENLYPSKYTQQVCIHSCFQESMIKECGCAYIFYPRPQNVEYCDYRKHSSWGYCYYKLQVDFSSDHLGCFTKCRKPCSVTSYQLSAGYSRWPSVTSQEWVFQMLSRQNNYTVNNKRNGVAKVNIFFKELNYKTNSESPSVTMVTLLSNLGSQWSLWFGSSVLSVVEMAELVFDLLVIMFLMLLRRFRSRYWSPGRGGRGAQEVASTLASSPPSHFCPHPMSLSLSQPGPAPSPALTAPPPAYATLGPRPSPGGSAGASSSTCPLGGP
T1 sequence (P51168 1-640): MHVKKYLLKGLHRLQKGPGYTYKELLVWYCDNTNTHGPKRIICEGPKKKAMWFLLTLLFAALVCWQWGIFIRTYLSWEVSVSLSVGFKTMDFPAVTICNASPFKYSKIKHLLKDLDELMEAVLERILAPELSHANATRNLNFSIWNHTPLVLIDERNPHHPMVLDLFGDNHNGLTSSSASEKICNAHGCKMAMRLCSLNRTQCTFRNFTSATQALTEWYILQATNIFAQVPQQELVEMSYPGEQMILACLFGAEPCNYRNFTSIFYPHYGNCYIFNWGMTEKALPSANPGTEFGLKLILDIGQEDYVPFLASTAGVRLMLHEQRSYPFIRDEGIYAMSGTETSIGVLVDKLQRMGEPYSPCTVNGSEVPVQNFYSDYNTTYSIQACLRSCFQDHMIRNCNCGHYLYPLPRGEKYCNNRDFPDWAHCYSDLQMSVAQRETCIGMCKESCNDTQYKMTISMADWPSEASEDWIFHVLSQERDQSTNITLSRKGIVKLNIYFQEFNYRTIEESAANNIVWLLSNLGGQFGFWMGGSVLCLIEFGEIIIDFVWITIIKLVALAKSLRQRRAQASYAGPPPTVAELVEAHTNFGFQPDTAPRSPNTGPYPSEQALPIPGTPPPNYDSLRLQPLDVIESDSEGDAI
T1 sequence (P51170 1-649): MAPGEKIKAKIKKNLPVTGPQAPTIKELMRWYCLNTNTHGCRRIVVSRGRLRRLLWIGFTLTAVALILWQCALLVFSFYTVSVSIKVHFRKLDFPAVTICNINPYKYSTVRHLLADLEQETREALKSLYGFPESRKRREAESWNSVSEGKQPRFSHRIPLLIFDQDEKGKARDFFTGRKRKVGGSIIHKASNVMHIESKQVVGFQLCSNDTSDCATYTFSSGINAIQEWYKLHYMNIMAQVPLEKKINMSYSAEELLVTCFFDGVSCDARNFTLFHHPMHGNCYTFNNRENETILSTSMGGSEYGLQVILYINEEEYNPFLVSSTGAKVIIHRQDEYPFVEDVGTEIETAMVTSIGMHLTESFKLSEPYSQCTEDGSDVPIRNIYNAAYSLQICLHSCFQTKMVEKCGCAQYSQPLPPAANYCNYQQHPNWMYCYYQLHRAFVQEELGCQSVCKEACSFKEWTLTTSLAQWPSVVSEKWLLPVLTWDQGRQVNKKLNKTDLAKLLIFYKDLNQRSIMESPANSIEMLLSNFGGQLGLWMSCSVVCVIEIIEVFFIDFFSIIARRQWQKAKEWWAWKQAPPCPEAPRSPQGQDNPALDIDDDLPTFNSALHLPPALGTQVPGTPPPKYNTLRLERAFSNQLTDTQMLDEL
Experiment: Patch-clamp activation of sodium ion channels in A549 cells
Format: cell-based
Details: 10 μM amiloride
Excerpt: Furthermore, a method common in laboratories is to detect the activation of ion channels by means of patch-clamp experiments, and this is described, for example, in Clunes M. T. et al, J Physiol Volume 557, No. 3, 809-819 (Jun. 15, 2004). For patch-clamp examinations of ion channels, a glass cannula is stretched thin and filled with a neutral buffer solution. The glass cannula (patch-clamp pipette) is carefully pressed onto an intact epithelial cell. A piece of membrane is located below the pipette. An electrical resistance is thereby produced between the interior of the pipette and the external solution. An electrode attached to a sensitive amplifier dips into the pipette solution.
The electrophysiological experiments were performed on human A549 cells (ATTC No. CCL-185). A549 cells are human lung epithelial cells which are involved in the diffusion of water and electrolytes in the lungs.
The cells were suspended in DMEM-F-12 medium with 1% penicillin-streptomycin and 10% fetal calf serum, transferred into plastic cell culture vessels and cultivated in the incubator with 95% air and 5% CO2 at 37° C. The medium was changed 2 to 3 times per week. The cells double within approx. 22 hours and a cell concentration of more than 7×10^4 cells per cm^2 was not exceeded.
Macroscopic currents and single-channel currents were discharged from A549 cells in the “whole cell” and “cell-attached” configuration of the “patch-clamp” technique (Hamill et al, Pflugers Arch. 1981, 391(2):85-100, 1981). For the current dissipations in the “whole cell” configuration, the following bath and electrode solutions were used:
Bath solution: 135 mM sodium methane sulfonate, 10 mM NaCl, 2.7 mM KCl, 1.8 mM CaCl2, 2 mM MgCl2, 5.5 mM glucose, and 10 mM HEPES, pH 7.4. […]
The cover slips with the cells cultivated thereon were transferred into a test bath with a capacity of 1 ml, fixed on the microscope table (Axiovert 100, 400-fold magnification), and the cells were superfused with the above-described bath solution. […] In the “cell-attached” configuration, the current can be measured through individual ion channels beneath the electrode tip. In the “whole cell” configuration, the membrane was penetrated beneath the electrode tip so that the current flowing through all ion channels of the cell could be measured. […] Upon obtaining a Gigaohm seal, a defined membrane retaining potential was applied via a pre-amplifier (CV-4 Headstage, Axon Instruments) and an amplifier (Axopatch 1D, Axon Instr.) and the current thereby flowing through the ion channels was measured.
The pulse protocol consisted of a hyperpolarization to −100 mV for 1 s at an interval of 5 s. […] The current dissipations thus obtained were stored and analyzed by means of the program PCLAMP 6.0. […]

In the case of `N=C(N)NC(=O)c1nc(Cl)c(N)nc1N` [amiloride, reference compound], the “inhibition of ion channels (patch clamp)” value is reported as “inhibition of ion channels”.
